Assay results published in ChEMBL document CHEMBL1201862, “PubChem BioAssay data set” (2004).
One block for each molecule: values may come before it. Calls of active or inactive are those of the source.

Key:
X-box-binding protein 1 = X-box-binding protein 1 (Homo sapiens, UniProt P17861); type: functional, Cricetulus griseus;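 note: confirmatory dose-response counter-screen serving a CHOP assay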
[1] = biological target: 26S proteasome non-ATPase regulatory subunit 14 (Homo sapiens, UniProt O00487); experiment: inhibition of proteasome subunit RPN11 – biochemical, fluorescence polarization, uHTS hits, confirmation (AID 602368); type: functional
26S proteasome non-ATPase regulatory subunit 14, sequence (O00487 whole entry): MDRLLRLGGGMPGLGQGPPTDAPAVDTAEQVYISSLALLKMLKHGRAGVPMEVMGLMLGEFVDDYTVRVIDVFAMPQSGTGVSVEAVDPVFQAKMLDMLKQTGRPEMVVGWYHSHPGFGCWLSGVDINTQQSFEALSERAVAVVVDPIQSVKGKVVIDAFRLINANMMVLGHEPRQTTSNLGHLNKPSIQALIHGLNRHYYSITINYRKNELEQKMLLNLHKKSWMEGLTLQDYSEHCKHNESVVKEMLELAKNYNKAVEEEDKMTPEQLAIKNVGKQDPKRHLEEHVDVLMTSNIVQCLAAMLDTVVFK

[2] = biological target: 72 kDa type IV collagenase (Homo sapiens, UniProt P08253); experiment: Dose Response validation of uHTS RPN11 inhibitor hits using a MMP-2 Fluorescence assay.; type: functional
72 kDa type IV collagenase, sequence (P08253 whole entry): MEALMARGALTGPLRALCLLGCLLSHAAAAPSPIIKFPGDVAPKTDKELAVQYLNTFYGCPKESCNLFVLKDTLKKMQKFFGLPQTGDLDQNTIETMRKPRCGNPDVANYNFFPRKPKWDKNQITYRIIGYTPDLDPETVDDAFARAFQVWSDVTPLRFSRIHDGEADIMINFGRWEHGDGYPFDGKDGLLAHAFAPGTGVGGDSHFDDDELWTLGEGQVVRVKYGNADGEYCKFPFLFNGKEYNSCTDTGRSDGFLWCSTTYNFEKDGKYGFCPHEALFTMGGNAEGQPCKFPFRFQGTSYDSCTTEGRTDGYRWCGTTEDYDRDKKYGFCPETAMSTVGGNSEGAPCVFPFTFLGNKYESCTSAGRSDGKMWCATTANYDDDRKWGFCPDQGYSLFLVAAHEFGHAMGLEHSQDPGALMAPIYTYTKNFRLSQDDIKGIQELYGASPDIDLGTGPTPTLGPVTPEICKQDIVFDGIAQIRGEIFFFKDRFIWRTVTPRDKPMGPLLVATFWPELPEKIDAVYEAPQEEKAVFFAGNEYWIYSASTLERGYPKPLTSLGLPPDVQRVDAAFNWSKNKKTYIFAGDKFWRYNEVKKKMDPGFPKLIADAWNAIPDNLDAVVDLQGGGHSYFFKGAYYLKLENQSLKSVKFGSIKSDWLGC

Prothrombin = Prothrombin (Bos taurus, UniProt P00735); experiment: thrombin protease inhibitors – biochemical, fluorescence polarization, uHTS hits, dose response (AID 602369); type: functional
Salmon testes DNA = experiment: acridine orange-DNA binding displacement – biochemical, fluorescence polarization, cherry-picked samples, set 2, artefact control for KSHV LANA DNA-binding inhibitor project, dose response (AID 504727); design: species or system Salmonidae
ORF 73 = biological target: T1, ORF 73 (Human herpesvirus 8, UniProt O40947); experiment: KSHV LANA DNA-binding disruption – biochemical, fluorescence polarization, cherry-picked samples, dose response (AID 504725); design: species or system Human gammaherpesvirus 8;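 note: fluorescence polarization of a labeled DNA duplex reporting LANA DNA binding; potency is for inhibitors that block LANA binding to the DNA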
T1 sequence (O40947 whole entry): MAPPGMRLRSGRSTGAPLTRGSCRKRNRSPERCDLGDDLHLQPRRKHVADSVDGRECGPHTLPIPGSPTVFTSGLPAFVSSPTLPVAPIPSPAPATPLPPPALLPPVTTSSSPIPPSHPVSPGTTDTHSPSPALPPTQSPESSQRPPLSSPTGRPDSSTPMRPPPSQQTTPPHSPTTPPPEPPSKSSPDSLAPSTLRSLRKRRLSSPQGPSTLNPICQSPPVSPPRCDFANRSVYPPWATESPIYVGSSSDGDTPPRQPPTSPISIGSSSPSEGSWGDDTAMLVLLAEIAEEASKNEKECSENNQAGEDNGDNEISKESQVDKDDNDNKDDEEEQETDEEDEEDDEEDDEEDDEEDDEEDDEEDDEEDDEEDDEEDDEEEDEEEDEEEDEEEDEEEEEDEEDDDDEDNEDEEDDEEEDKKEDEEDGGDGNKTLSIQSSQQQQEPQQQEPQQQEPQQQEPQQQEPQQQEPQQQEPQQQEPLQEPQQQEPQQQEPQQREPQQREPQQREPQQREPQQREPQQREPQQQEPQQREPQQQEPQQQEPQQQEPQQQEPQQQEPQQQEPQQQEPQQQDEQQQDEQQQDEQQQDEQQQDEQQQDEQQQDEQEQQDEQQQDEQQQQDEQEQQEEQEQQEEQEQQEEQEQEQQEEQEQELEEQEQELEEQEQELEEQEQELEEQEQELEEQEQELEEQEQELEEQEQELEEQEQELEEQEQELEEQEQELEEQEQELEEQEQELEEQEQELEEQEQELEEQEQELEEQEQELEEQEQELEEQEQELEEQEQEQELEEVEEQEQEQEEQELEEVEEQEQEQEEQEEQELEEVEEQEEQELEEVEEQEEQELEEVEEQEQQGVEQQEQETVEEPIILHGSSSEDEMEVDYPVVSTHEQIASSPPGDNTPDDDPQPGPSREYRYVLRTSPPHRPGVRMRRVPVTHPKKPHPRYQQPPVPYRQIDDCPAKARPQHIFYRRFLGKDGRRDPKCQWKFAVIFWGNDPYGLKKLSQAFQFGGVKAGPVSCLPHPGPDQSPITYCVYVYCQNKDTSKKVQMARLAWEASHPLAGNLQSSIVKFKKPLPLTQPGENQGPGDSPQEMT

Keap1/Nrf2 = Keap1/Nrf2 (Homo sapiens, UniProt Q14145); experiment: disruptors of Keap1 binding to Nrf2 peptide – biochemical, fluorescence polarization, cherry-picked samples, dose response (AID 588683)
Keap1/Nrf2, sequence (Q16236 whole entry): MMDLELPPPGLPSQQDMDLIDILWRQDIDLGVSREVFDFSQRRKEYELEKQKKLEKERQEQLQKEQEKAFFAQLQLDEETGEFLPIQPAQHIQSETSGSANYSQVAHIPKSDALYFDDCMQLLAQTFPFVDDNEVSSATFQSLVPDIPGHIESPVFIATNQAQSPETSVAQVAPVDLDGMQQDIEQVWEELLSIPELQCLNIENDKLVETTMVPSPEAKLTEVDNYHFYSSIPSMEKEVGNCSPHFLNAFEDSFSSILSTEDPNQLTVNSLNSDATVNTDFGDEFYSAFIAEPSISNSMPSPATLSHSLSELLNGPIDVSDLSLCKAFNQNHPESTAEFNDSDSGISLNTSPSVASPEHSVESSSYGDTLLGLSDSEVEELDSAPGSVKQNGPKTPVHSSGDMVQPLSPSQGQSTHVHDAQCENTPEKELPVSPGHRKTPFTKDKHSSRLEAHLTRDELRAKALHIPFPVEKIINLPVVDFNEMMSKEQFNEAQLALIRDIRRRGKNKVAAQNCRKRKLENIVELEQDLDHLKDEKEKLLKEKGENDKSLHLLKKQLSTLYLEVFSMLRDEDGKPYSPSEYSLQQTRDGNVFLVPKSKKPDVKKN
Keap1/Nrf2, sequence (Q14145 whole entry): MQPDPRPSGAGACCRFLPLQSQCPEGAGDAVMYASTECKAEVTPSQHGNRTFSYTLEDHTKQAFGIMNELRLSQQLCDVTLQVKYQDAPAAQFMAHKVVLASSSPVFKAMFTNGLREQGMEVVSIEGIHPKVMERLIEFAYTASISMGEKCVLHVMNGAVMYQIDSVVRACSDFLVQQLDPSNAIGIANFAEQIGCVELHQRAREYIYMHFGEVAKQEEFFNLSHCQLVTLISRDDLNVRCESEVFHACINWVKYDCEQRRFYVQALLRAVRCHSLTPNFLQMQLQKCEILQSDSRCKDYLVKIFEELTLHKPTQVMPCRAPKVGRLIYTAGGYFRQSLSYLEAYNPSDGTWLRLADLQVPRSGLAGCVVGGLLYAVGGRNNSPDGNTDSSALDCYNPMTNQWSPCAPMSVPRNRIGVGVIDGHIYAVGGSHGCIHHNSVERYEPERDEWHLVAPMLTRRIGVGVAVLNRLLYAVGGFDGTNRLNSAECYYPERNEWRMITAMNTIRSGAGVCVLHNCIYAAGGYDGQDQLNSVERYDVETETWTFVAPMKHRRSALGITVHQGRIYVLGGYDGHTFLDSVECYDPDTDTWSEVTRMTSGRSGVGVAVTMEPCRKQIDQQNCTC

[3] = biological target: T2, Corticotropin-releasing factor receptor 2/Corticotropin-releasing factor-binding protein (Homo sapiens, UniProt P24387+Q13324); experiment: activators of CRF receptor 2 with binding protein – uHTS hits, confirmation (AID 602473); type: functional; conditions: read-out: EC50_Mean
T2 sequence (Q13324 whole entry): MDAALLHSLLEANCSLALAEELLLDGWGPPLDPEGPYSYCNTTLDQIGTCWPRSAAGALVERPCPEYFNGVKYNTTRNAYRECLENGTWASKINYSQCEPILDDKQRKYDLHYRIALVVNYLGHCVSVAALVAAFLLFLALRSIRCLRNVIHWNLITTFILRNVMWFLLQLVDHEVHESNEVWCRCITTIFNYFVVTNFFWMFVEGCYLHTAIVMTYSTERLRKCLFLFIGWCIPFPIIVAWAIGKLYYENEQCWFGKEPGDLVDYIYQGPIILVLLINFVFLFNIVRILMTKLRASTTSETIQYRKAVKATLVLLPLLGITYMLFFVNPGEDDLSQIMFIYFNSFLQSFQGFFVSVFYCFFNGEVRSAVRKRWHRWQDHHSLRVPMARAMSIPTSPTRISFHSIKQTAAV
T2 sequence (P24387 whole entry): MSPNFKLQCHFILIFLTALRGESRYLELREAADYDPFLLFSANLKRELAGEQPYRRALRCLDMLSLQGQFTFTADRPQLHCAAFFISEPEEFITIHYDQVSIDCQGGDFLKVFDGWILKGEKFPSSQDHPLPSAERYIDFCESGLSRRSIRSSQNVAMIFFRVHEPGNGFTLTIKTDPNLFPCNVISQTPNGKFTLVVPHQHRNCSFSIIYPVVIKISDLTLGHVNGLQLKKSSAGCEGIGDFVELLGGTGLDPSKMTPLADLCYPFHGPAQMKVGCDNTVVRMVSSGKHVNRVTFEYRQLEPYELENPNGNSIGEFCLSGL

MDA-MB-435 = experiment: cells; type: functional, cell-based; conditions: Homo sapiens
[4] = viability of PTEN-deleted HCT116 cells – cell-based, HCT116 PTEN knockout, dose response (AID 1047); type: functional;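 note: HCT116 colon tumor cells with PTEN knocked out; cells exposed to compound for 60 hours before readout; potency for loss of cell viability measured by luminescence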
[5] = NIH3T3 cell viability loss – ATP luminescence, mouse fibroblasts, counter-screen, dose response (AID 2010); type: functional, cell-based;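 note: cells exposed to compound for about 90 hours before reading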
[6] = viability of HCT116 lacking mutant beta-catenin – cell-based, human colon tumor, dose response (AID 1045); type: functional;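 note: HCT116 colon tumor cells with beta catenin knocked out; cells exposed to compound for 60 hours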
cells = type: functional, cell-based; conditions: PPC-1
Phosphomannomutase 2 = biological target: T3, Phosphomannomutase 2 (Homo sapiens, UniProt O15305); experiment: Counter screen SAR assay for PMM2 inhibitors via a fluorescence intensity assay. [Related pubchem assays (depositor defined):AID1545, AID1574]
T3 sequence (O15305 whole entry): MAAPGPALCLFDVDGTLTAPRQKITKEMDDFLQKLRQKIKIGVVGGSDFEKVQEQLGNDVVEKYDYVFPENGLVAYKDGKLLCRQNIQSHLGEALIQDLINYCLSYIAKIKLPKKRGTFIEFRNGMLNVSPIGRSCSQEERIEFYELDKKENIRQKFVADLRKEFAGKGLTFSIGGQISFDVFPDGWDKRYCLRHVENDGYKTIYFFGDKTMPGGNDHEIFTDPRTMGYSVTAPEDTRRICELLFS

Cytochrome P450 2C19 = Cytochrome P450 2C19 (Homo sapiens, UniProt P33261); experiment: Cytochrome panel assay with activity outcomes. Panel member name: p450-cyp2c19 Compounds with AC50 equal or less than 10 uM are considered active; type: functional; conditions: read-out: AC50
Cytochrome P450 2C19, sequence (P33261 whole entry): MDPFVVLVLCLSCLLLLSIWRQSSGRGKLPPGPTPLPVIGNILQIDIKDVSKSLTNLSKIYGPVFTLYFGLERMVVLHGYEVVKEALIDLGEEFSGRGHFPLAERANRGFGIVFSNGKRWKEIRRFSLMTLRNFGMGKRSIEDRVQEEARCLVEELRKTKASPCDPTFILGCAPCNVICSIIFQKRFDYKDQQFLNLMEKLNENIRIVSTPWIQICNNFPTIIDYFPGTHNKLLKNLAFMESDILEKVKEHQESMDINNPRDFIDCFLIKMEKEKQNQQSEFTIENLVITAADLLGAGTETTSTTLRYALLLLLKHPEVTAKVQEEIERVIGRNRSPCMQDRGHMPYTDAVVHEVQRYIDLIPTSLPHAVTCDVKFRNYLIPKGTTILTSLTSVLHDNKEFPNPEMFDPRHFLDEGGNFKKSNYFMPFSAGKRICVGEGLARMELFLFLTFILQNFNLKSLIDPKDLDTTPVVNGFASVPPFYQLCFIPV

X-box-binding protein 1, sequence (P17861 whole entry): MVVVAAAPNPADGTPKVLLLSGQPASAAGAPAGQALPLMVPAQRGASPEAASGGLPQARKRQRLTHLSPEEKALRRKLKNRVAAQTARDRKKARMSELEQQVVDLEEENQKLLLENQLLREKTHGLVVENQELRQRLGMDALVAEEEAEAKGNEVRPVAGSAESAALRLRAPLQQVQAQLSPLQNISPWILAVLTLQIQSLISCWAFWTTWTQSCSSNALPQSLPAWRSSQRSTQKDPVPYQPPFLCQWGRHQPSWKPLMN

Absolute IC50 (XBP1) (X-box-binding protein 1): 10 µM
IC50 [1]: 21.5 µM (active)
IC50 [2]: > 100 µM (inactive)
IC50 (Prothrombin): 29.7 µM (active)
Compound: Cc1cccc(OCc2nnc(SCc3nc(O)c4ccc(C(F)(F)F)cc4n3)o2)c1

AC50 (ORF 73): 172 µM (active)
AC50 (Keap1/Nrf2): > 52 µM (inactive)
EC50 [3]: 5.5 µM (active)
Compound: Cc1ccccc1N1C(=O)c2cccc3c(N(C)CCO)ccc(c23)C1=O
AC50 (Salmon testes DNA): 68.4 µM (active)

Compound: CSc1nc(-c2ccc(C)cc2)nc(C(Cl)Cl)n1
IC50 (MDA-MB-435): > 10 µM (inactive)
EC50 [4]: 0.824 µM (active)
EC50 [5]: > 60 µM (inconclusive)
EC50 [6]: 0.714 µM (active)
IC50 (cells): > 10 µM (inactive)
IC50 (Phosphomannomutase 2): > 100 µM (inactive)
AC50 (Cytochrome P450 2C19): 0.398 µM (inconclusive)
